Measurements reported in ChEMBL document CHEMBL3112509, “Synthesis and antimicrobial activity of (1,4-phenylene)bis(arylsulfonylpyrazoles and isoxazoles)” (2014).
Calls of active or inactive are those of the source. No cut-off for these calls is given here.

Key:
Assay type in all cases: functional
Aspergillus niger [1] = assay: Antifungal activity against Aspergillus niger at 50 ug/well after 48 hrs by agar well diffusion method; conditions: read-out: DIZ
Bacillus subtilis [2] = assay: Antibacterial activity against Bacillus subtilis at 50 ug/well after 24 hrs by agar well diffusion method; conditions: for zone of inhibition at 50 µg/disc: read-out: DIZ
Penicillium chrysogenum [3] = assay: Antifungal activity against Penicillium chrysogenum at 100 ug/well after 48 hrs by agar well diffusion method; conditions: read-out: DIZ
Klebsiella pneumoniae [4] = assay: Antibacterial activity against Klebsiella pneumoniae at 100 ug/well after 24 hrs by agar well diffusion method; conditions: for zone of inhibition at 100 µg/disc: read-out: DIZ
Bacillus subtilis [5] = assay: Antibacterial activity against Bacillus subtilis at 100 ug/well after 24 hrs by agar well diffusion method; conditions: for zone of inhibition at 100 µg/disc: read-out: DIZ
Klebsiella pneumoniae [6] = assay: Antibacterial activity against Klebsiella pneumoniae at 50 ug/well after 24 hrs by agar well diffusion method; conditions: for zone of inhibition at 50 µg/disc: read-out: DIZ
Staphylococcus aureus [7] = assay: Antibacterial activity against Staphylococcus aureus at 50 ug/well after 24 hrs by agar well diffusion method; conditions: for zone of inhibition at 50 µg/disc: read-out: DIZ
Pseudomonas aeruginosa [8] = assay: Antibacterial activity against Pseudomonas aeruginosa at 100 ug/well after 24 hrs by agar well diffusion method; conditions: for zone of inhibition at 100 µg/disc: read-out: DIZ
Aspergillus niger [9] = assay: Antifungal activity against Aspergillus niger at 100 ug/well after 48 hrs by agar well diffusion method; conditions: read-out: DIZ
Staphylococcus aureus [10] = assay: Antibacterial activity against Staphylococcus aureus at 100 ug/well after 24 hrs by agar well diffusion method; conditions: for zone of inhibition at 100 µg/disc: read-out: DIZ
Penicillium chrysogenum [11] = assay: Antifungal activity against Penicillium chrysogenum at 50 ug/well after 48 hrs by agar well diffusion method; conditions: read-out: DIZ
Pseudomonas aeruginosa [12] = assay: Antibacterial activity against Pseudomonas aeruginosa at 50 ug/well after 24 hrs by agar well diffusion method; conditions: for zone of inhibition at 50 µg/disc: read-out: DIZ

Row | SMILES | zone of inhibition at 50 µg/disc (Aspergillus niger [1]) [mm] | diameter of the inhibition zone (DIZ) (Bacillus subtilis [2]) | zone of inhibition at 100 µg/disc (Penicillium chrysogenum [3]) [mm] | diameter of the inhibition zone (DIZ) (Klebsiella pneumoniae [4]) | diameter of the inhibition zone (DIZ) (Bacillus subtilis [5]) | diameter of the inhibition zone (DIZ) (Klebsiella pneumoniae [6]) | diameter of the inhibition zone (DIZ) (Staphylococcus aureus [7]) | diameter of the inhibition zone (DIZ) (Pseudomonas aeruginosa [8]) | zone of inhibition at 100 µg/disc (Aspergillus niger [9]) [mm] | diameter of the inhibition zone (DIZ) (Staphylococcus aureus [10]) | zone of inhibition at 50 µg/disc (Penicillium chrysogenum [11]) [mm] | diameter of the inhibition zone (DIZ) (Pseudomonas aeruginosa [12]) | zone of inhibition at 50 µg/disc (Bacillus subtilis [2]) [mm] | zone of inhibition at 100 µg/disc (Klebsiella pneumoniae [4]) [mm] | zone of inhibition at 100 µg/disc (Bacillus subtilis [5]) [mm] | zone of inhibition at 50 µg/disc (Klebsiella pneumoniae [6]) [mm] | zone of inhibition at 50 µg/disc (Staphylococcus aureus [7]) [mm] | zone of inhibition at 100 µg/disc (Pseudomonas aeruginosa [8]) [mm] | zone of inhibition at 100 µg/disc (Staphylococcus aureus [10]) [mm] | zone of inhibition at 50 µg/disc (Pseudomonas aeruginosa [12]) [mm]
1 | COc1ccc(C2=NOC(c3ccc(C4ON=C(c5ccc(OC)cc5)C4S(=O)(=O)c4ccc(C)cc4)cc3)C2S(=O)(=O)c2ccc(C)cc2)cc1 (stereo not given) | 16 | inactive | 18 | inactive | inactive | inactive | inactive | inactive | 19 | inactive | 15 | inactive | – | – | – | – | – | – | – | –
2 | COc1ccc(-c2noc(-c3ccc(-c4onc(-c5ccc(OC)cc5)c4S(=O)(=O)c4ccc(Cl)cc4)cc3)c2S(=O)(=O)c2ccc(Cl)cc2)cc1 | 23 | – | 30 | – | – | – | – | – | 26 | – | 27 | – | 30 | 24 | 32 | 22 | 23 | 20 | 26 | 17
3 | COc1ccc(C2=NN(c3ccccc3)C(c3ccc(C4C(S(=O)(=O)c5ccc(Cl)cc5)C(c5ccc(OC)cc5)=NN4c4ccccc4)cc3)C2S(=O)(=O)c2ccc(Cl)cc2)cc1 (stereo not given) | 10 | inactive | 17 | inactive | inactive | inactive | inactive | inactive | 11 | inactive | 15 | inactive | – | – | – | – | – | – | – | –
4 | O=S(=O)(c1ccccc1)c1c(-c2ccc(Cl)cc2)nn(-c2ccccc2)c1-c1ccc(-c2c(S(=O)(=O)c3ccccc3)c(-c3ccc(Cl)cc3)nn2-c2ccccc2)cc1 | 24 | – | 30 | – | – | – | – | – | 27 | – | 27 | – | 28 | 23 | 31 | 21 | 23 | 19 | 25 | 17
5 | COc1ccc(-c2nn(-c3ccccc3)c(-c3ccc(-c4c(S(=O)(=O)c5ccc(Cl)cc5)c(-c5ccc(OC)cc5)nn4-c4ccccc4)cc3)c2S(=O)(=O)c2ccc(Cl)cc2)cc1 | 25 | – | 26 | – | – | – | – | – | 27 | – | 24 | – | 23 | 17 | 25 | 15 | 18 | 16 | 20 | 14
6 | COc1ccc(-c2noc(-c3ccc(-c4onc(-c5ccc(OC)cc5)c4S(=O)(=O)c4ccc(C)cc4)cc3)c2S(=O)(=O)c2ccc(C)cc2)cc1 | 22 | – | 27 | – | – | – | – | – | 24 | – | 25 | – | 25 | 18 | 27 | 16 | 20 | 17 | 22 | 15
7 | COc1ccc(C2=NN(c3ccccc3)C(c3ccc(C4C(S(=O)(=O)c5ccccc5)C(c5ccc(OC)cc5)=NN4c4ccccc4)cc3)C2S(=O)(=O)c2ccccc2)cc1 (stereo not given) | 8 | inactive | 16 | inactive | inactive | inactive | inactive | inactive | 10 | inactive | 12 | inactive | – | – | – | – | – | – | – | –
8 | O=S(=O)(c1ccccc1)C1C(c2ccc(Cl)cc2)=NN(c2ccccc2)C1c1ccc(C2C(S(=O)(=O)c3ccccc3)C(c3ccc(Cl)cc3)=NN2c2ccccc2)cc1 (stereo not given) | 13 | – | 18 | – | – | – | – | inactive | 15 | – | 15 | inactive | 12 | 12 | 14 | 10 | 11 | – | 13 | –
9 | COc1ccc(-c2nn(-c3ccccc3)c(-c3ccc(-c4c(S(=O)(=O)c5ccccc5)c(-c5ccc(OC)cc5)nn4-c4ccccc4)cc3)c2S(=O)(=O)c2ccccc2)cc1 | 20 | – | 25 | – | – | – | – | – | 22 | – | 23 | – | 20 | 16 | 24 | 15 | 17 | 14 | 19 | 12
10 | O=S(=O)(c1ccccc1)C1C(c2ccc(Cl)cc2)=NOC1c1ccc(C2ON=C(c3ccc(Cl)cc3)C2S(=O)(=O)c2ccccc2)cc1 (stereo not given) | 15 | – | 22 | – | – | – | – | – | 17 | – | 20 | – | 18 | 13 | 20 | 11 | 14 | 12 | 16 | 10
11 | O=S(=O)(c1ccc(Cl)cc1)C1C(c2ccc(Cl)cc2)=NOC1c1ccc(C2ON=C(c3ccc(Cl)cc3)C2S(=O)(=O)c2ccc(Cl)cc2)cc1 (stereo not given) | 18 | – | 23 | – | – | – | – | – | 20 | – | 21 | – | 19 | 14 | 21 | 12 | 14 | 13 | 16 | 11
12 | COc1ccc(C2=NOC(c3ccc(C4ON=C(c5ccc(OC)cc5)C4S(=O)(=O)c4ccccc4)cc3)C2S(=O)(=O)c2ccccc2)cc1 (stereo not given) | 18 | inactive | 17 | inactive | inactive | inactive | inactive | inactive | 20 | inactive | 14 | inactive | – | – | – | – | – | – | – | –
13 | Cc1ccc(S(=O)(=O)c2c(-c3ccc(Cl)cc3)nn(-c3ccccc3)c2-c2ccc(-c3c(S(=O)(=O)c4ccc(C)cc4)c(-c4ccc(Cl)cc4)nn3-c3ccccc3)cc2)cc1 | 22 | – | 29 | – | – | – | – | – | 26 | – | 26 | – | 28 | 23 | 30 | 21 | 24 | 18 | 26 | 15
14 | O=S(=O)(c1ccc(Cl)cc1)C1C(c2ccc(Cl)cc2)=NN(c2ccccc2)C1c1ccc(C2C(S(=O)(=O)c3ccc(Cl)cc3)C(c3ccc(Cl)cc3)=NN2c2ccccc2)cc1 (stereo not given) | 13 | – | 20 | – | – | – | – | inactive | 15 | – | 18 | inactive | 13 | 13 | 16 | 10 | 11 | – | 14 | –
15 | Cc1ccc(S(=O)(=O)C2C(c3ccc(Cl)cc3)=NOC2c2ccc(C3ON=C(c4ccc(Cl)cc4)C3S(=O)(=O)c3ccc(C)cc3)cc2)cc1 (stereo not given) | 15 | – | 21 | – | – | – | – | inactive | 17 | – | 17 | inactive | 16 | 12 | 18 | 10 | 12 | – | 15 | –
